Results on 28 compounds are retold here after US20240150356A1, “Pyrimidine amide compounds and use thereof” (ALPHALA CO., LTD., priority 2019, published 2024).

Molecules are shown by their SMILES.

The subject of the first assay is Hep3B cells (hepatocellular carcinoma cell line). Description: In vitro MTS cell viability assay (NCI-60 methodology), Hep3B. It is filed as cell-based. The settings on record: Homo sapiens, 48 h, Table 1, MTS, 2 days drug incubation, 50% reduction vs time zero, read-out: Hep3B LC50. On the procedure:
The cell viability measurement is based on the NCI-60 screening methodology (Nat. Rev. Cancer 6, 813-823, 2006). Briefly, cells are inoculated into 96-well plates at the optimal plating density. After 24 h, one of the two plates for Hep3B cell line is processed to determine a time zero cell viability (Tz) by MTS assay (Promega). Compounds are added over a 2-fold serial dilution to provide a total five drug concentrations plus DMSO control. Plates are incubated for a further 2 days, then measured cell viability by MTS assay [control growth (C) and test growth in the presence of drug at the five concentration levels (Ti)]. The LC50 is calculated from [(Ti−Tz)/Tz]×100=−50, which is the drug concentration resulting in a 50% reduction at the end of the drug treatment as compared to that at the beginning.
The compounds prepared in Tables 1-10 were tested in three in vitro assays, and the results are shown in Tables 1-10 for Hep3B and Table 11 for SW480 and NCI-H460 shown below. Herein, Hep3B refers to hepatocellular carcinoma cell line, SW480 refers to colon adenocarcinoma cell line, and NCI-H460 refers to human lung cancer cell line.
Shown in following Tables 1 to 10 are the structures and in vitro activities of exemplary compounds of formula (I).
In general terms: Formazan colour is commonly taken as a measure of viable cells.
A word on the LC50: it is the concentration that kills 50% of the test population. `Cn1ncc2c(NC(=O)c3ccc([N+](=O)[O-])s3)nc(-c3ccc(C(C)(C)C)cc3)nc21` [Compound 1-1, N-(6-(4-(tert-butyl)phenyl)-1-methyl-1H-pyrazolo[3,4-d]pyrimidin-4-yl)-5-nitrothiophene-2-carboxamide]: the LC50 came to 1800 nM. Same read-out and setting: next, `CCOc1ccc(-c2nc(NC(=O)c3ccc([N+](=O)[O-])s3)c3cnn(C)c3n2)cc1` [Compound 1-2, N-(6-(4-ethoxyphenyl)-1-methyl-1H-pyrazolo[3,4-d]pyrimidin-4-yl)-5-nitrothiophene-2-carboxamide]: 3240 nM; `Cn1ncc2c(NC(=O)c3ccc([N+](=O)[O-])s3)nc(-c3cccc(OC(F)(F)F)c3)nc21` [Compound 1-6, N-(1-methyl-6-(3-(trifluoromethoxy)phenyl)-1H-pyrazolo[3,4-d]pyrimidin-4-yl)-5-nitrothiophene-2-carboxamide]: 1470 nM; `Cn1ncc2c(NC(=O)c3ccc([N+](=O)[O-])s3)nc(-c3ccc(OC(C)(C)C)cc3)nc21` [Compound 1-7, N-(6-(4-(tert-butoxy)phenyl)-1-methyl-1H-pyrazolo[3,4-d]pyrimidin-4-yl)-5-nitrothiophene-2-carboxamide]: 1510 nM.

As to `Cn1ncc2c(NC(=O)c3ccc([N+](=O)[O-])s3)nc(-c3ccccc3OC(F)(F)F)nc21` [Compound 1-8, N-(1-methyl-6-(2-(trifluoromethoxy)phenyl)-1H-pyrazolo[3,4-d]pyrimidin-4-yl)-5-nitrothiophene-2-carboxamide], the LC50 came to 2530 nM. Same read-out and setting: for `CCC(C)(C)c1ccc(-c2nc(NC(=O)c3ccc([N+](=O)[O-])s3)c3cnn(C)c3n2)cc1` [Compound 1-9, N-(1-methyl-6-(4-(tert-pentyl)phenyl)-1H-pyrazolo[3,4-d]pyrimidin-4-yl)-5-nitrothiophene-2-carboxamide] the value was 1500 nM.

Turning to `CN(C)c1ccc(-c2nc(NC(=O)c3ccc([N+](=O)[O-])s3)c3cnn(C)c3n2)cc1` [Compound 1-10, N-(6-(4-(dimethylamino)phenyl)-1-methyl-1H-pyrazolo[3,4-d]pyrimidin-4-yl)-5-nitrothiophene-2-carboxamide], the LC50 was over 5000 nM. On to `COc1ccc(/C=C/c2nc(NC(=O)c3ccc([N+](=O)[O-])s3)c3cnn(C)c3n2)cc1` [Compound 1-12, (E)-N-(6-(4-methoxystyryl)-1-methy-1H-pyrazolo[3,4-d]pyrimidin-4-yl)-5-nitrothiophene-2-carboxamide], for which the LC50 is over 5000 nM. Still for that read-out and setting: for `Cn1ncc2c(NC(=O)c3ccc([N+](=O)[O-])s3)nc(C#Cc3ccc(C(F)(F)F)cc3)nc21` [Compound 1-13, N-(1-methyl-6-((4-(trifluoromethyl)phenyl)ethynyl)-1H-pyrazolo[3,4-d]pyrimidin-4-yl)-5-nitrothiophene-2-carboxamide] the value was 2030 nM; for `Cn1ncc2c(NC(=O)c3ccc([N+](=O)[O-])s3)nc(C#Cc3ccc(OC(F)(F)F)cc3)nc21` [Compound 1-14, N-(1-methyl-6-((4-(trifluoromethoxy)phenyl)ethynyl)-1H-pyrazolo[3,4,d]pyrimidin-4-yl)-5-nitrothiophene-2-carboxamide], 1670 nM; for `Cn1ncc2c(NC(=O)c3ccc([N+](=O)[O-])s3)nc(Oc3cccc(C(F)(F)F)c3)nc21` [Compound 1-18, N-(1-methyl-6-(3-(trifluoromethyl)phenoxy)-1H-pyrazolo[3,4-d]pyrimidin-4-yl)-5-nitrothiophene-2-carboxamide], 1990 nM. On the same count and under the same terms, for `CC(C)n1ncc2c(NC(=O)c3ccc([N+](=O)[O-])s3)nc(-c3ccc(C(C)(C)C)cc3)nc21` [Compound 1-23, N-(6-(4-(tert-butyl)phenyl)-1-isopropyl-1H-pyrazolo[3,4-d]pyrimidin-4-yl)-5-nitrothiophene-2-carboxamide] the value was 1570 nM.

Take `CC(C)n1ncc2c(NC(=O)c3ccc([N+](=O)[O-])s3)nc(-c3ccc(C(F)(F)F)cc3)nc21` [Compound 1-24, N-(1-isopropyl-6-(4-(trifluoromethyl)phenyl)-1H-pyrazolo[3,4-d]pyrimidin-4-yl)-5-nitrothiophene-2-carboxamide]: the LC50 is 900 nM.

`CC(C)(C)c1ccc(-c2nc(NC(=O)c3ccc([N+](=O)[O-])s3)c3cnn(C(C)(C)C)c3n2)cc1` [Compound 1-25, N-(1-(tert-butyl)-6-(4-(tert-butyl)phenyl)-1H-pyrazolo[3,4,d]pyrimidin-4-yl)-5-nitrothiophene-2-carboxamide]: the LC50 was determined as 4110 nM.

Regarding `CC(C)(C)n1ncc2c(NC(=O)c3ccc([N+](=O)[O-])s3)nc(-c3ccc(C(F)(F)F)cc3)nc21` [Compound 1-26, N-(1-(tert-butyl)-6-(4-(trifluoromethyl)phenyl)-1H-pyrazolo[3,4,d]pyrimidin-4-yl)-5-nitrothiophene-2-carboxamide], the LC50 was 790 nM. Turning to `O=C(Nc1nc(-c2ccc(OC(F)(F)F)cc2)nc2c1cnn2CCO)c1ccc([N+](=O)[O-])s1` [Compound 1-28, N-(1-(2-hydroxyethyl)-6-(4-(trifluoromethoxy)phenyl)-1H-pyrazolo[3,4-d]pyrimidin-4-yl)-5-nitrothiophene-2-carboxamide], the LC50 was determined as 4030 nM. As to `O=C(Nc1nc(-c2ccc(OC(F)(F)F)cc2)nc2c1cnn2CCN1CCOCC1)c1ccc([N+](=O)[O-])s1` [Compound 1-30, N-(1-(2-morpholinoethyl)-6-(4-(trifluoromethoxy)phenyl)-1H-pyrazolo[3,4-d]pyrimidin-4-yl)-5-nitrothiophene-2-carboxamide], the LC50 came to 1700 nM.

For the compound `CN(C)CCn1ncc2c(NC(=O)c3ccc([N+](=O)[O-])s3)nc(-c3ccc(OC(F)(F)F)cc3)nc21` [Compound 1-31, N-(1-(2-(dimethylamino)ethyl)-6-(4-(trifluoromethoxy)phenyl)-1H-pyrazolo[3,4-d]pyrimidin-4-yl)-5-nitrothiophene-2-carboxamide], the LC50 stood at 1860 nM.

For `O=C(Nc1nc(-c2ccc(OC(F)(F)F)cc2)nc2c1cnn2CCN1CCC(F)(F)C1)c1ccc([N+](=O)[O-])s1` [Compound 1-32, N-(1-(2-(3,3-difluoropyrrolidin-1-yl)ethyl)-6-(4-(trifluoromethoxy)phenyl)-1H-pyrazolo[3,4-d]pyrimidin-4-yl)-5-nitrothiophene-2-carboxamide], the LC50 is 770 nM.

The assay is the same for the next values; noted with them: Homo sapiens, 48 h, Table 2, MTS, 2 days drug incubation, 50% reduction vs time zero, read-out: Hep3B LC50.
For `Cn1ncc2c(-c3ccc(C(C)(C)C)cc3)nc(NC(=O)c3ccc([N+](=O)[O-])s3)nc21` [Compound 2-1, N-(4-(4-(tert-but)phenyl)-1-methyl-1H-pyrazolo[3,4-d]pyrimidin-6-yl)-5-nitrothiophene-2-carboxamide], the LC50 was 3130 nM. The same measure, in the same setting: next, `CC(C)n1ncc2c(-c3ccc(OC(F)(F)F)cc3)nc(NC(=O)c3ccc([N+](=O)[O-])s3)nc21` [Compound 2-3, N-(1-isopropyl-4-(4-(trifluoromethoxy)phenyl)-1H-pyrazolo[3,4-d]pyrimidin-6-yl)-5-nitrothiophene-2-carboxamide]: 4020 nM; `CC(C)(C)n1ncc2c(-c3ccc(OC(F)(F)F)cc3)nc(NC(=O)c3ccc([N+](=O)[O-])s3)nc21` [Compound 2-4, N-(1-(tert-butyl)-4-(4-(trifluoromethoxy)phenyl)-1H-pyrazolo[3,4,d]pyrimidin-6-yl)-5-nitrothiophene-2-carboxamide]: 3050 nM; `CC(C)(C)c1ccc(-c2nc(NC(=O)c3ccc([N+](=O)[O-])s3)nc3c2cnn3C(C)(C)C)cc1` [Compound 2-5, N-(1-(tert-butyl)-4-(4-(tert-butyl)phenyl)-1H-pyrazolo[3,4-d]pyrimidin-6-yl)-5-nitrothiophene-2-carboxamide]: 12900 nM.

With `Cc1csc2c(-c3cccc(OC(F)(F)F)c3)nc(NC(=O)c3ccc([N+](=O)[O-])s3)nc12` [Compound 2-7, N-(7-methyl-(3-(trifluoromethoxy)phenyl)thieno[3,2-d]pyrimidin-2-yl)-5-nitrothiophene-2-carboxamide], the LC50 was 3430 nM.

Regarding `Cc1csc2c(-c3ccc(OC(F)(F)F)cc3)nc(NC(=O)c3ccc([N+](=O)[O-])s3)nc12` [Compound 2-8, N-(7-methyl-4-(4-(trifluoromethoxy)phenyl)thieno[3,2-d]pyrimidin-2-yl)-5-nitrothiophene-2-carboxamide], the LC50 was 1710 nM.

The assay is the same for the next values; noted with them: Homo sapiens, 48 h, Table 3, MTS, 2 days drug incubation, 50% reduction vs time zero, read-out: Hep3B LC50.
Turning to `Cc1nn(C)c2c(NC(=O)c3ccc([N+](=O)[O-])s3)nc(-c3ccc(C(F)(F)F)cc3)nc12` [Compound 3-1, N-(1,3-dimethyl-5-(4-(trifluoromethyl)phenyl)-1H-pyrazolo[4,3-d]pyrimidin-7-yl)-5-nitrothiophene-2-carboxamide], the LC50 worked out at 2220 nM.

In the case of `Cc1nn(C)c2c(NC(=O)c3ccc([N+](=O)[O-])s3)nc(-c3cccc(C(F)(F)F)c3)nc12` [Compound 3-2, N-(1,3-dimethyl-5-(3-(trifluoromethyl)phenyl)-1H-pyrazolo[4,3-d]pyrimidin-7-yl)-5-nitrothiophene-2-carboxamide], the LC50 stood at 860 nM. Regarding `Cc1nn(C)c2c(NC(=O)c3ccc([N+](=O)[O-])s3)nc(-c3ccc(OC(F)(F)F)cc3)nc12` [Compound 3-3, N-(1,3-dimethyl-5-(4-(trifluoromethoxy)phenyl)-1H-pyrazolo[4,3-d]pyrimidin-7-yl)-5-nitrothiophene-2-carboxamide], the LC50 amounted to 1920 nM.
